Test results from paper PMC2866097 (Meat science, 2010).

Columns and labels:
[1] = tested on: bovine fast myosin subfragment 1 (fast S1, cutaneous trunci)
[2] = molecular target: bovine slow myosin subfragment 1 (slow S1, masseter) (Bos taurus, UniProt Q9BE39); experiment: biochemical
purified protein = substrate: O=P(O)(O)OP(=O)(O)OP(=O)(O)O; experiment: purified protein; settings: Mg2+

Chain of bovine slow myosin subfragment 1 (slow S1, masseter) (P85100 2-199 partner, one chain of several): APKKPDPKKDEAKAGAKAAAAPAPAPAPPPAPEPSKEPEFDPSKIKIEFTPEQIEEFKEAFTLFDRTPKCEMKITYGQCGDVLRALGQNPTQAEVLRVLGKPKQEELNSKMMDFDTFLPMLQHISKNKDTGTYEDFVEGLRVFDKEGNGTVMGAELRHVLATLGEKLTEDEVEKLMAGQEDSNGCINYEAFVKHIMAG

Molecule	Ki [1]	Ki [2]	Km (purified protein)
O=P(O)(O)OP(=O)(O)O [PPi, pyrophosphate]	88 ± 6.9 µM	18 ± 1.8 µM	–
bovine slow myosin subfragment 1 (slow S1, masseter) (Bos taurus) (protein) MVDAEMAAFGEAAPYLRKSEKERLEAQTRPFDLKKDVFVPDDKEEFVKATILSREGGKVTAETEHGKTVTVKEDQVLQQNPPKFDKIEDMAMLTFLHEPAVLYNLKERYASWMIYTYSGLFCVTINPYKWLPVYNAEVVAAYRGKKRSEAPPHIFSISDNAYQYMLTDRENQSILITGESGAGKTVNTKRVIQYFAVIAAIGDRSKKEQATGKGTLEDQIIQANPALEAFGNAKTVRNDNSSRFGKFIRIHFGATGKLASADIETYLLEKSRVIFQLKAERDYHIFYQILSNKKPELLDMLLITNNPYDYAFISQGETTVASIDDAEELMATDNAFDVLGFTTEEKNSMYKLTGAIMHFGNMKFKLKQREEQAEPDGTEEADKSAYLMGLNSADLLKGLCHPRVKVGNEYVTKGQNVQQVVYAKGALAKAVYERMFNWMVTRINATLETKQPRQYFIGVLDIAGFEIFDFNSFEQLCINFTNEKLQQFFNHHMFVLEQEEYKKEGIEWEFIDFGMDLQACIDLIEKPMGIMSILEEECMFPKATDMTFKAKLFDNHLGKSSNFQKPRNIKGKPEAHFSLIHYAGTVDYNIIGWLQKNKDPLNETVVDLYKKSSLKMLSSLFANYAGFDTPIEKGKGKAKKGSSFQTVSALHRENLNKLMTNLRSTHPHFVRCIIPNETKSPGVIDNPLVMHQLRCNGVLEGIRICRKGFPNRILYGDFRQRYRILNPAAIPEGQFIDSRKGAEKLLGSLDIDHNQYKFGHTKVFFKAGLLGLLEEMRDERLSRIITRIQAQSRGVLSRMEFKKLLERRDSLLIIQWNIRAFMGVKNWPWMKLYFKIKPLL	–	–	380 ± 130 µM
